Data on nine molecules can be found in patent publication US6417159B1 (Queen's University at Kingston, priority 1996, dated 2002).

“And” between values parts separate entries of the source, which are not always exact repeats. Identical values can stand only once. Like-named read-outs stand apart in the source and are kept apart here. Where no end group is shown, it is not given here. The star is where a group is joined. 125I = [125I]*

One data set relates to ED8 chick DRG neurons. Put plainly: NGF-mediated neurite growth by ED8 chick DRG sensory neurons. It is filed as cell-based. The following applies: for % of Control Response DRG: (peptide with NGF − NGF alone)/(R3 with NGF − NGF alone) ×100, scored at 43, 44 and 48 hours, M ± SEM, n = 3 assays; for Reduction (loss) of biological effect relative to R3 on enhancement of NGF-mediated neurite growth: DRG cells, 40-50 hours in vitro; for Neurite growth in control wells: 16-20 hours.

In the next data set the target is T1, p65 subunit of NFkB (Rattus norvegicus, UniProt Q7TQN4).
T1 construct: endogenous in cells; host or cells: PC12 (soluble cell extract)
The data set is described as follows: Chemical cross-linking of 125I-Y-R3 to 65 kDa species in PC12 soluble extract, displacement by unlabeled peptide. The format is binding. The following applies: for Displacement of radiolabel from 65 kDa band: 0.5 μM 125I-Y-R3, 150-fold molar excess of unlabeled peptide, densitometric scanning. As to the method: Y-R3 (5 μg) was labeled with 1 mCi of Na^125I (Amersham) using iodobeads (Pierce) in 50 mM sodium phosphate buffer, as described in Part A. ^125I-Y-R3 (0.5 μM) was incubated with PC12 cell extract (prepared as above) or affinity purified proteins at pH 7.0, with and without a 150-fold molar excess of competing unlabeled peptide for 2 hrs at 4° C. At that time, EDC (Pierce) and NHS (Pierce) were added to a final concentration of 2 mM each and the reaction allowed to proceed for 30 min at room temperature. The reaction was quenched by adding Tris-HCl to a final concentration of 50 mM. An aliquot was removed and mixed with 4 volumes of SDS sample buffer for SDS-PAGE and the remainder subjected to immunoprecipitation.
Cell extract or R3 affinity purified material was incubated for 4 hrs at 4° C. with 5 μl of agarose conjugated goat anti-NFkB p65 (Santa Cruz). The gel was washed at 4° C. with 5×1 ml of HKR containing 1% NP40, followed by a final wash without detergent. SDS reducing sample buffer was added to the gel and the samples were heated at 95° C. for 5 minutes prior to electrophoresis as described above.
To examine the structural specificity of the interaction of R3 peptide with the 65 kDa species, PC12 cell soluble extract was chemically cross-linked with 0.5 μM ^125I-Y-R3 in the absence and presence of a 150-fold molar excess of unlabeled R9 or R10. […] The reaction mixtures were separated by SDS-PAGE, followed by autoradiography.

Data set [1] concerns PC12 cells. The data set is described as follows: NGF-mediated neurite growth by PC12 cells. The format is cell-based, rat. The following applies: PC12 cells, peptide co-incubated with NGF. How it is done: PC12 cells or PC12^nnr5 cells (Loeb et al., 1991) were seeded on poly-D-lysine-coated (0.1 mg·ml^−1, overnight) 96-well microculture dishes (Falcon) at approximately 800 cells per well with RPMI with 10% fetal calf serum. Peptides were added to replicate wells 48 hours before, or at the time of, addition of NGF. NGF was prepared by the method of Mobley et al. (1976) and used at 1-2 nM. Other additives were diluted at least 100-fold and added to the wells as described. At various times following incubation at 37° C., 5% CO2, wells were scored for neurite-bearing cells by serial counting of representative circumferences of each well.
A Leitz Diavert inverted microscope with phase optics was used to score neurite growth. For both PC12 cells and sensory neurons, a neurite was scored as such if its calibre from origin to terminal was approximately the same and the length was equal to or greater than 1.5 cell body diameters.

In data set [2] the test system is PC12 cells. It is filed as cell-based, rat. How it is done:
Labeling of all tyrosinated peptides for uptake studies were carried out using IODO-BEADS™ (Pierce). Briefly, 5 μg of the desired peptide was iodinated at pH 7.4, at room temperature, and separated from free iodide by selective elution from a C-18 SEP PAK LIGHT™ (Waters-Millipore) in 80% CH3CN, 1.0% trifluoroacetic acid. The solvent was removed at room temperature under a stream of nitrogen. Specific activity of labeled peptide was 50-65 cpm-pg^−1.
Stock solutions of [^125I]-labeled peptides (final concentration […], specific activity 50-800 cpm·pmol^−1) were prepared in RPMI medium with 10% fetal calf serum. Uptake was initiated by adding the peptide to the cell suspension in RPMI 1640 with 10% fetal calf serum, maintained at 37° C. Cell-associated label was determined by counting the cell pellet obtained by microcentrifuging an aliquot (100 μl containing 1-3×10^5 cells) of the cell suspension through a layer of silicone oil. The silicone oil was 3:1 mixture of dibutyl phthalate:dinonyl phthalate (Fluke Chemie, Switzerland) with a density of 1.027 (Drevon et al., 1977).
The uptake versus were corrected for “adsorption” of peptides to the cell surface at zero time. This was assessed by determining label that remained associated with cells removed immediately after the addition of [^125I]-peptide and washed by 2 cycles of centrifugation at […] for 5 minutes and resuspension in peptide-free tissue culture medium. At the indicated times, cold chase values were obtained by removing an aliquot (500 μl) of the cell suspension for centrifugation at 150×g for 5 minutes, followed by resuspension in its initial volume of RPMI+10% fetal calf serum containing 50 μM (10×original) unlabeled peptide. The cell suspension was then returned at 37° C. for a further 30 minutes. At the end of this time, cell-associated label was determined as above.

The next data set deals with c-fos mRNA. The following applies: one-hour exposure.
The subject of data set [3] is PC12 cells. Put plainly: Cytotoxicity in PC12 cultures. Conditions: concentration of 50 μM.
The target of data set [4] is T2, p65 subunit of transcription factor NFkB from PC12 cell soluble extract (rat, UniProt Q7TQN4 1-550).
T2 construct: also called NFkB p65; 65 kDa species
Put plainly: chemical cross-linking (EDC/NHS) of 125I-Y-R3 to PC12 soluble extract, SDS-PAGE, autoradiography. As to the method: (§1) At that time, EDC (Pierce) and NHS (Pierce) were added to a final concentration of 2 mM each and the reaction allowed to proceed for 30 min at room temperature. The reaction was quenched by adding Tris-HCl to a final concentration of 50 mM. An aliquot was removed and mixed with 4 volumes of SDS sample buffer for SDS-PAGE and the remainder subjected to immunoprecipitation.

Data set [5] concerns the target T2, p65 subunit of transcription factor …. Put plainly: affinity chromatography of PC12 soluble extract on R3 matrix, SDS-PAGE, silver stain. As to the method:
PC12 cells were harvested and washed by 3 cycles of resuspension and centrifugation in Ca^2+, Mg^2+-free Gey's Balanced Salt Solution (CMF). […] The column was then washed with 10 bed volumes of homogenizing buffer and 10 bed volumes of detergent-free homogenizing buffer. The bound material was then eluted with 0.5 mg/ml R3 peptide. The eluate was dialyzed (3500 cut off) extensively against 10 mM sodium phosphate pH 7.4 and taken to dryness under reduced pressure on a Speed Vac (Savant).
A soluble extract of PC12 cells was applied to the R3 affinity resin. […] A similar profile was obtained when extracts from "primed" (exposed to 100 ng/ml NGF for 10 days) PC12 cells, PC12^nnr5 cells or ED9 chick brain were used.

Data set [6] has the same target. Put plainly: competition of unlabeled R3 against 125I-Y-R3 cross-linking to the 65 kDa protein. As to the method: as §1
The p65 subunit of NFkB was detected in PC12 soluble extracts and in the R3-affinity purified material (FIG. 9A). This 65 kDa protein could also be specifically cross-linked to the iodinated probe for the intracellular domain of P75^NTR, the interaction being displaced by a 150-fold molar excess of unlabeled peptide, and the complex immunoprecipitated by antibodies to the transcription factor (FIGS. 9B and […]).

Setting [7] is: 10 μM peptide in solution, no additive to culture medium.
Setting [8] is: time course of association with PC12 cells.

T2 sequence (Q7TQN4 whole entry): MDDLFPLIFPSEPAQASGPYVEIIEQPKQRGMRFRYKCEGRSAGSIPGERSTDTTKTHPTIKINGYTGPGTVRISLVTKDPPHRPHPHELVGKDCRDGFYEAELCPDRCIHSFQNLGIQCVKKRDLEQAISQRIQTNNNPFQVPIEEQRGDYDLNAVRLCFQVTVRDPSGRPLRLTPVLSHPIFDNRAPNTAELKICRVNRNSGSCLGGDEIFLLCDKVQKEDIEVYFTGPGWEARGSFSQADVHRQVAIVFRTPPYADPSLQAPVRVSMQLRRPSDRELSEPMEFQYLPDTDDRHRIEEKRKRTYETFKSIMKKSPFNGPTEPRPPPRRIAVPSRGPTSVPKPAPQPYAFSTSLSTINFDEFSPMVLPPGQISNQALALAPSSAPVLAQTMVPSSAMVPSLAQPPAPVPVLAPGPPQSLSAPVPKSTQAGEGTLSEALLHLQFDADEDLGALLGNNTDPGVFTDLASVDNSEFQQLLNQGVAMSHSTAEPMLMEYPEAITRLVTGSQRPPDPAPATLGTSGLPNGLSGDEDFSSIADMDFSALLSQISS
T1 sequence (Q7TQN4 whole entry): as above

In the case of LDALLAALRAIQR [R9], in the data set with ED8 chick DRG neurons, the “% of Control Response DRG” value was 61 ± 1^(5) % and the “Reduction (loss) of biological effect relative to R3 on enhancement of NGF-mediated neurite growth” value is reported as “approximately 40%”. Moreover, the “Activity relative to R3 in influencing NGF-mediated neurite growth” value in the data set on ED8 chick DRG neurons (in vitro) is 50-60% and 61%. Moreover, the “Displacement of radiolabel from 65 kDa band” value in the data set with p65 subunit of NFkB amounted to 76%.

In the case of LDALLAALRRRQR [R10], in the data set with ED8 chick DRG neurons, the “% of Control Response DRG” value is 29 ± 4^(5) % and the “Reduction (loss) of biological effect relative to R3 on enhancement of NGF-mediated neurite growth” value is “approximately 70%”. The “Displacement of radiolabel from 65 kDa band” value with p65 subunit of NFkB turned out to be 43%.

In the case of “R4: hybrid: R3 linked via its amino terminus to an 11-amino acid peptide homologue of the inner transmembrane domain of p75^NTR (Sequence ID No. 7) (VVVGLVAYIAFLDALLAALRRIQR)”, the “Effect on NGF-mediated neurite growth, co-incubation, in words” value in the data set with PC12 cells [1] is “did not enhance NGF-mediated neurite growth”. The “Cell association resistant to chase (uptake), in words” value with PC12 cells [2] is given as “did not suggest an uptake process”. For the same molecule, the “Time at half-maximal uptake” value with PC12 cells [2] (setting [7]) was 0 min.

With “Y-R3: tyrosinated peptide analogue of R3, N-terminal tyrosine (Sequence ID No. 6); radio-iodinated for uptake and cross-linking (YLDALLAALRRIQR; also: radio-iodinated)”, the “Uptake at full saturation” value in the data set with PC12 cells [2] is given as 20 pmol/10^6 cells. Besides, the “Time at half-maximal uptake” value in the data set with PC12 cells [2] (setting [7]) is 30 min. Further, in the data set on PC12 cells [2] (10 μM peptide, MgCl2 (10 mM) added to culture medium), the “Time at half-maximal uptake” value is 30 min. In addition, the “Time for which label remained resistant to chase by excess unlabeled R3” value in the data set on PC12 cells [2] (cold chase) is listed as “up to 50 hours”. In addition, in the data set on PC12 cells [2] (setting [8]), the “Time at which uptake was half-maximally saturated” value came out at 30 min and the “Time to full saturation of uptake” value fell in the range of 10 to 20 h. In addition, in the data set with p65 subunit of NFkB (soluble PC12 extract), the “Interaction with 65 kDa species by chemical cross-linking, in words” value is on record as “interacted specifically”.

For mastoparan [MP], the “Effect on NGF-mediated neurite growth, co-incubation, in words” value in the data set with PC12 cells [1] is “did not significantly influence”. Besides, the “Effect on NGF-mediated c-fos mRNA induction, in words” value in the data set on c-fos mRNA is “stimulatory effect”. Further, the “Cytotoxicity, in words” value in the data set on PC12 cells [3] is “cytotoxic”.

Turning to nerve growth factor [NGF], the “Neurite growth in control wells” value with ED8 chick DRG neurons (NGF 0.04 pM alone) came out at 5.5±2.1; in the data set on ED8 chick DRG neurons (NGF 0.4 pM alone) it was 14.0±6.1; with ED8 chick DRG neurons (NGF 4 pM alone) it was 31.7±8.7; in the data set on ED8 chick DRG neurons (NGF 40 pM alone) it was 44.8±8.6.

B1: 125I-Y-R3 (R3 peptide with N-terminal tyrosine, radio-iodinated) (peptide)
peptide: Y(125I)LDALLAALRRIQR
notes: Used at 0.5 uM in cross-linking with EDC/NHS; also called tyrosinated peptide analogue of R3; iodinated probe for the intracellular domain of p75NTR
On to B1, for which, in [4], the binding result is on record as “binds”.

B2: R3 affinity matrix peptide (R3 with six residues added to the N-terminus, coupled to Aminolink agarose) (peptide)
peptide: KAYIAFLDALLAALRRIQR
modifications: also: coupled at pH 7.0 to Aminolink agarose
notes: Immobilised on agarose beads in the assay
Turning to B2, the binding result in [5] is reported as “binds”.

B3: R3 peptide (synthetic peptide identical to rat p75NTR 367-379) (peptide)
peptide: LDALLAALRRIQR
notes: also called peptide R3; unlabeled R3
B3: the binding result in [6] is “binds”.
